Among the data in ChEMBL document CHEMBL3352710, “Endoperoxide polyketides from a Chinese Plakortis simplex: further evidence of the impact of stereochemistry on antimalarial activity of simple 1,2-dioxanes” (Bioorg Med Chem, 2014) are IC50 values, retold here.

Experiment [1] has as its system Plasmodium falciparum. Nature of the experiment: Antimalarial activity against chloroquine-resistant Plasmodium falciparum W2 after 72 hrs by lactate dehydrogenase assay. Format: functional, organism-based. To be noted: W2, 72 h.
Experiment [2] relates to Plasmodium falciparum. Briefly: Antimalarial activity against chloroquine-sensitive Plasmodium falciparum D10 after 72 hrs by lactate dehydrogenase assay. Format: functional.
Setting [3] is: Plasmodium falciparum, D10, 72 h, read-out: IC50.

Structures are written as SMILES.

In general, IC50 refers to the concentration needed to halve the response being measured. Consider `CCCC[C@H](CC)C[C@]1(CC)C=C(CC)[C@H](CC(=O)OC)OO1`, for which the IC50 in the experiment with Plasmodium falciparum [1] came to 2700 nM; with Plasmodium falciparum [2] (setting [3]), 4.05 µM.
With `CCCC[C@H](CC)C[C@@]1(CC)C[C@H](CC)[C@@H](CC(=O)OC)OO1`, the values for the half-maximal inhibitory concentration (IC50) with Plasmodium falciparum [1] and in the experiment on Plasmodium falciparum [2] were 11400 nM and “Not Active”, respectively.
Regarding `CCCC[C@H](C)C[C@]1(CC)C=C(CC)[C@H](CC(=O)OC)OO1`, the IC50 with Plasmodium falciparum [1] is 1560 nM; in the experiment on Plasmodium falciparum [2] (setting [3]) it was 1.77 µM.
Taken in the same sequence, the figures for `CCCCC(C)C[C@H](CC)C[C@@]1(C)C[C@H](CC)[C@@H](CC(=O)OC)OO1` (stereo not given in full) were 4100 nM and 5.12 µM.
For `CCCC[C@H](CC)C[C@@]1(CC)C[C@H](CC)[C@H](CC(=O)OC)OO1`, in that order: 4980 nM and 6.18 µM.
For `CC/C=C/[C@H](CC)C[C@]1(CC)C=C(CC)[C@H](CC(=O)OC)OO1`, in that order: 2910 nM and 3.89 µM.
In the experiment with Plasmodium falciparum [1], `C[C@@H]1CC[C@H]2[C@@H](C)C(=O)O[C@@H]3O[C@@]4(C)CC[C@@H]1[C@]32OO4` [ARTEMISININ] displayed an IC50 of 9 nM.
`CCCC[C@H](CC)C[C@@]1(C)C[C@@H](CC)[C@@H](CC(=O)OC)OO1`: the IC50 in the experiment with Plasmodium falciparum [1] turned out to be 430 nM; in the experiment with Plasmodium falciparum [2] (setting [3]), 0.9 µM.
